Reference: ChEMBL document CHEMBL3813616, “Discovery of novel 7-azaindoles as PDK1 inhibitors” (Bioorg Med Chem Lett, 2016)
Values after ≈ are worked out from the molar mass of the structure shown.

Tests used:
[1] = molecular target: T1, 3-phosphoinositide-dependent protein kinase 1 (Homo sapiens, UniProt O15530); test: Inhibition of human His6-tagged PDK1 using biotinylated PDKtide as substrate after 60 mins by topcount method
T1 sequence (O15530 whole entry): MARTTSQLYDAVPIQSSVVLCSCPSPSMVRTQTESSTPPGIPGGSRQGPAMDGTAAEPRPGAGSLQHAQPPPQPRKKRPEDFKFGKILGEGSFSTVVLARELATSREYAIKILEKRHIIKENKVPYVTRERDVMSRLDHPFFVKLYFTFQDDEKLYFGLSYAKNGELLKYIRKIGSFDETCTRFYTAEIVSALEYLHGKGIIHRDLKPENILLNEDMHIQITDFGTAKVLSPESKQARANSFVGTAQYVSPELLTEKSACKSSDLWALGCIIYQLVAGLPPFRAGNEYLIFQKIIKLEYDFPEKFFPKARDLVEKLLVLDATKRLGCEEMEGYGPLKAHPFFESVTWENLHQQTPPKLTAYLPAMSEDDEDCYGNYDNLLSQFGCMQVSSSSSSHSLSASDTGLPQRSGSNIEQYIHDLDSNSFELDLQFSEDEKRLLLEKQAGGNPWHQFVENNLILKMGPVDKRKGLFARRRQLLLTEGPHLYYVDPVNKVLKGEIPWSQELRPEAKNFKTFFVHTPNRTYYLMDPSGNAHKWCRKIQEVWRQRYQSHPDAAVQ

[2] = molecular target: T1, 3-phosphoinositide-dependent protein kinase 1; test: Inhibition of PDK1 in human PC3 cells assessed as reduction in AKT Thr308 phosphorylation after 45 mins; format: cell-based, PC-3
[3] = molecular target: T2, Phosphatidylinositol 4,5-bisphosphate 3-kinase catalytic subunit alpha isoform (Homo sapiens, UniProt P42336); test: Inhibition of PI3K alpha (unknown origin)
[4] = molecular target: Phosphatidylinositol 4,5-bisphosphate 3-kinase catalytic subunit beta isoform (Homo sapiens, UniProt P42338); test: Inhibition of PI3K beta (unknown origin)
[5] = molecular target: Phosphatidylinositol 4,5-bisphosphate 3-kinase catalytic subunit gamma isoform (Homo sapiens, UniProt P48736); test: Inhibition of PI3K gamma (unknown origin)
[6] = molecular target: T3, Phosphatidylinositol 4,5-bisphosphate 3-kinase catalytic subunit delta isoform (Homo sapiens, UniProt O00329); test: Inhibition of PI3K delta (unknown origin)
T3 sequence (O00329 whole entry): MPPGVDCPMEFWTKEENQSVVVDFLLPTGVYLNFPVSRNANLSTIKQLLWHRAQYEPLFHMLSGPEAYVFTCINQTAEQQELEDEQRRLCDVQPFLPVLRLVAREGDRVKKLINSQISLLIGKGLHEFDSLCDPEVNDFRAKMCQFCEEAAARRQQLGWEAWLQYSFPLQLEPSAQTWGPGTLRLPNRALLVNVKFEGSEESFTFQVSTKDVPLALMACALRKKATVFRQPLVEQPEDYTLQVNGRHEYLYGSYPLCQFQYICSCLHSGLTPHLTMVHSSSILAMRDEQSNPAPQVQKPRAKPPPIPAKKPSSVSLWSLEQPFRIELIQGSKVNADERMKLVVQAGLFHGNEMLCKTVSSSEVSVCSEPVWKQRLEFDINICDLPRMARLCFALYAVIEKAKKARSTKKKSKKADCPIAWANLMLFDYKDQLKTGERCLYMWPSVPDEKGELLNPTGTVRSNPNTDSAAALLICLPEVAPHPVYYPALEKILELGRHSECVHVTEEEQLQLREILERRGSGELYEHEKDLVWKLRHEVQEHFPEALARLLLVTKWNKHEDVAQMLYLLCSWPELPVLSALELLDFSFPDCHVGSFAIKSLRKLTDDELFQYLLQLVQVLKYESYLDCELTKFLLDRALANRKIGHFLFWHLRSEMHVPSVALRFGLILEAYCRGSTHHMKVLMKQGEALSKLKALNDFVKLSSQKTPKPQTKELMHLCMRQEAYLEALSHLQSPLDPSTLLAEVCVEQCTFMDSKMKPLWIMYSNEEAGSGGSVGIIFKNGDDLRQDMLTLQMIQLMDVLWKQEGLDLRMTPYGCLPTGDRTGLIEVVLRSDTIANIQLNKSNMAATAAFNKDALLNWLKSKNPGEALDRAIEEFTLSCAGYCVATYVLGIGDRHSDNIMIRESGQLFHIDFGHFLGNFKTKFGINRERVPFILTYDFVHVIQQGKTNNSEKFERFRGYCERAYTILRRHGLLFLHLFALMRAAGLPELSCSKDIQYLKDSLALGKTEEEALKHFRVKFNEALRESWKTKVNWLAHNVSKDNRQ

[7] = Intrinsic clearance in human liver microsomes; format: ADME; conditions: read-out: CLH
[8] = Intrinsic clearance in mouse liver microsomes; format: ADME; conditions: read-out: CLH
[9] = Permeability across apical to basolateral side in human Caco2 cells; format: ADME, cell-based; conditions: Caco-2
[10] = Efflux ratio of permeability from basolateral to apical over apical to basolateral side in human Caco2 cells; format: ADME, cell-based; conditions: Caco-2
[11] = species on record: Homo sapiens; test: Selectivity ratio of IC50 for PI3K alpha (unknown origin) to IC50 for human His6-tagged PDK1
[12] = Solubility of the compound; format: physicochemical
[13] = molecular target: T1, 3-phosphoinositide-dependent protein kinase 1; test: Inhibition of human PDK1
[14] = molecular target: T2, Phosphatidylinositol 4,5-bisphosphate 3-kinase catalytic subunit alpha isoform; test: Inhibition of PI3K alpha (unknown origin) at 10 uM

Sequence of Phosphatidylinositol 4,5-bisphosphate 3-kinase catalytic subunit gamma isoform (P48736 whole entry, canonical isoform): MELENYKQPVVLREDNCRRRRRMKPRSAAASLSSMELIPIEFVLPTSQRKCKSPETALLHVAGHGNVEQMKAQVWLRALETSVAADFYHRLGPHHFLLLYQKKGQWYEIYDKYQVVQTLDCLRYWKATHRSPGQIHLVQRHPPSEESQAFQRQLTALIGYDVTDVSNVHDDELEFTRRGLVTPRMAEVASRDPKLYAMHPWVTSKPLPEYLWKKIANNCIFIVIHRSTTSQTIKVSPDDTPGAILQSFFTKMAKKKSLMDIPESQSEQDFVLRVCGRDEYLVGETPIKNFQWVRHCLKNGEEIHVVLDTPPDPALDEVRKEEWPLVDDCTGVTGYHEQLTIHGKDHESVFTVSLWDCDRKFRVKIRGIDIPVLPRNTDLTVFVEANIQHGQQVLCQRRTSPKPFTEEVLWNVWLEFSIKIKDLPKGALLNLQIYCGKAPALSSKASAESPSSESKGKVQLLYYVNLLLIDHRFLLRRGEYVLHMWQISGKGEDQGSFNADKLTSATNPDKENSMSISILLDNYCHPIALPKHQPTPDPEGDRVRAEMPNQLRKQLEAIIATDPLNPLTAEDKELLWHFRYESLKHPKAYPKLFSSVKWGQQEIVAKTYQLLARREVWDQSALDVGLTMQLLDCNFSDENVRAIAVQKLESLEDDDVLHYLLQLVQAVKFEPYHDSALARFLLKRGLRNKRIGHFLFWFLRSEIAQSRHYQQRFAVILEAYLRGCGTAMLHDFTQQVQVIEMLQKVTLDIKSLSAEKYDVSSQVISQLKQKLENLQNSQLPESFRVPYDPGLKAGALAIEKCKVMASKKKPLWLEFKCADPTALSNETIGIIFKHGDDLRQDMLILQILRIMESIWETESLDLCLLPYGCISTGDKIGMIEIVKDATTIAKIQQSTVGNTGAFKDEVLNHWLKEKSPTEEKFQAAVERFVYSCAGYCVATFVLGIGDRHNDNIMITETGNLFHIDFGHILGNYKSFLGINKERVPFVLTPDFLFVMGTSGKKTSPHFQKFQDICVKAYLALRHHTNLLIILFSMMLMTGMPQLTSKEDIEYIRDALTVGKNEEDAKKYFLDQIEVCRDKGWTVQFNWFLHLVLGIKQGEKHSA
Sequence of Phosphatidylinositol 4,5-bisphosphate 3-kinase catalytic subunit beta isoform (P42338 whole entry, canonical isoform): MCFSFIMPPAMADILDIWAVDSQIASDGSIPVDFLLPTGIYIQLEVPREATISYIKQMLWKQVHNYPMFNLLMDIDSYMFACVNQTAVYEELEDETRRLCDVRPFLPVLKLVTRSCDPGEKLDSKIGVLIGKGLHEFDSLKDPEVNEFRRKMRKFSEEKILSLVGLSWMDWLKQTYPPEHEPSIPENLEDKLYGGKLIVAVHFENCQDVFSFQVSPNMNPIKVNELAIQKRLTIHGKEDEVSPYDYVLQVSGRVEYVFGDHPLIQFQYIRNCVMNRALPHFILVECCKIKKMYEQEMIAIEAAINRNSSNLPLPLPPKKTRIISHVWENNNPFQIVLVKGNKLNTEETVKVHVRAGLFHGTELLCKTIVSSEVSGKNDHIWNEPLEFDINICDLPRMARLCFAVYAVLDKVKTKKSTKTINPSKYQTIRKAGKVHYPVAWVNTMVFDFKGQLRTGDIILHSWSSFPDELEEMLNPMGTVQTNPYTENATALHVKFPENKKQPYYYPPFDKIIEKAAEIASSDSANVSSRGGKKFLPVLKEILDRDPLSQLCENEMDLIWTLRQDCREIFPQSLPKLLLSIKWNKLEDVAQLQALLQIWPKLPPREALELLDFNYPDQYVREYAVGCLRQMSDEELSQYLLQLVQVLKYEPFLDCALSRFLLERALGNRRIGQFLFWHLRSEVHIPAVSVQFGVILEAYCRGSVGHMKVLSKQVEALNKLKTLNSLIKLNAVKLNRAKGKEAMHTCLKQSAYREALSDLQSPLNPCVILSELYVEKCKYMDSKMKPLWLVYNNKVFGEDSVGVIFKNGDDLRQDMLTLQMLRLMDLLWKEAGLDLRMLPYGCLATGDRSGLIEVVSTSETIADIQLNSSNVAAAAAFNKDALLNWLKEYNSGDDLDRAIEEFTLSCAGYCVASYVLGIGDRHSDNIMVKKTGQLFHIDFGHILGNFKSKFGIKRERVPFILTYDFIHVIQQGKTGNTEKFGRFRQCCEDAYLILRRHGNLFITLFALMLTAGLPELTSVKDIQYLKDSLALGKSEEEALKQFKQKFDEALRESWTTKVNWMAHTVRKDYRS
T2 sequence (P42336 whole entry, canonical isoform): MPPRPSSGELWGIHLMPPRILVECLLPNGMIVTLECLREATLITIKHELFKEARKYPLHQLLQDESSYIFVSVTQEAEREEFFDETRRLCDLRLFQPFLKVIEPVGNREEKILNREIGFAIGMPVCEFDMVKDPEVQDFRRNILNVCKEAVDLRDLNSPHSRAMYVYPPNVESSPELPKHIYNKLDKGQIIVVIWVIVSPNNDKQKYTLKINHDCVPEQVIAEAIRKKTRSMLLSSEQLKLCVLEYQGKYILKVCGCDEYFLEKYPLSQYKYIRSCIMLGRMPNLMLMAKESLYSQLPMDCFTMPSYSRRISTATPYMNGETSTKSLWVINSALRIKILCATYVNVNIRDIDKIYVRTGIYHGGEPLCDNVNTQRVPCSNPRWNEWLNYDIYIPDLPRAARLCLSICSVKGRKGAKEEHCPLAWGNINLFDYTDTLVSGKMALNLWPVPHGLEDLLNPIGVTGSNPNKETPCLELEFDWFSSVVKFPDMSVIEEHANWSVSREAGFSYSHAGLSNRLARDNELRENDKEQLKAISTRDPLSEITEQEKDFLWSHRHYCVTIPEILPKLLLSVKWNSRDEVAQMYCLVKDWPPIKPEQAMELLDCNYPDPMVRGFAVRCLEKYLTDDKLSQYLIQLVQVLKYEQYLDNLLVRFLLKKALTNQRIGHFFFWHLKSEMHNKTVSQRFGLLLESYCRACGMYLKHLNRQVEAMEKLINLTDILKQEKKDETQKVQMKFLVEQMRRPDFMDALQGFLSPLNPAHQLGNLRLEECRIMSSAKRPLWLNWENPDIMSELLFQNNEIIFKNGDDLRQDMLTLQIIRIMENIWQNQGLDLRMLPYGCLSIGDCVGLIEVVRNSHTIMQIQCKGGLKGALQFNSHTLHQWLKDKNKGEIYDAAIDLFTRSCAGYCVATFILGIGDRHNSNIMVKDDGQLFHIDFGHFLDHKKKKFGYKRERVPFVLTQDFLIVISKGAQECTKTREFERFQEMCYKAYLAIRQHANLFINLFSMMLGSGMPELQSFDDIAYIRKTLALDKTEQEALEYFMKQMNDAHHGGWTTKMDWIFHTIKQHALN

`Nc1nc2c3ccccc3nc(-c3ccccc3)n2n1` showed an IC50 [1] of 60 µM.
With `NCCCCc1cc(-c2c[nH]c3ncccc23)nc(N)n1` the IC50 [1] was 1 µM and the IC50 [2] was > 30 µM.
In the case of `CCc1cc(-c2c[nH]c3ncc(-c4ccc(N)nc4)cc23)nc(N)n1`, the IC50 [1] is reported as 0.17 µM, the IC50 [2] is reported as 21 µM and the IC50 [3] is reported as > 10 µM. The IC50 [4] was > 30 µM, the IC50 [5] was > 10 µM and the IC50 [6] was > 10 µM.
For `CNc1nccc(-c2cn(CCOC)c3ncccc23)n1`, the IC50 [1] was > 10 µM.
For `CCc1cc(-c2c[nH]c3ncc(-c4cccnc4)cc23)nc(N)n1`, the IC50 [1] was 0.5 µM and the IC50 [2] was > 30 µM.
`Nc1ncc(-c2ccccc2)cc1-c1nc2ccccc2[nH]1` gave an IC50 [1] of 1.1 µM.
In the case of `CCc1cc(-c2c[nH]c3ncc(-c4c(C)nn(C)c4C)cc23)nc(N)n1`, the IC50 [1] is reported as 2.7 µM and the IC50 [2] is reported as > 30 µM.
With `Cc1nccc(-c2c[nH]c3ncccc23)n1` the IC50 [1] was > 10 µM.
With `CCc1cc(-c2c[nH]c3ncc(-c4cnn(CC(C)C)c4)cc23)nc(N)n1` the IC50 [1] was 0.11 µM, the IC50 [2] was 9.6 µM and the microsomal CLint [7] was > 55 µL/min/mg. It also gave a microsomal CLint [8] of 67 µL/min/mg, a Papp A→B [9] of 27 ×10⁻⁶ cm/s and a Ratio [10] of 0.6. The IC50 [3] was 4.7 µM, the IC50 [4] was > 30 µM and the IC50 [5] was > 10 µM. The IC50 [6] was > 10 µM and the Ratio IC50 [11] was 42.
For `CCc1cc(-c2c(C)[nH]c3ncccc23)nc(N)n1`, the IC50 [1] was > 10 µM.
For `NCCCc1cc(-c2c[nH]c3ncccc23)nc(N)n1`, the IC50 [1] was 0.39 µM, the IC50 [2] was > 30 µM and the solubility [12] was 12 µg/mL (≈ 44.7 µM).
In the case of `CCc1cc(-c2c[nH]c3ncc(-c4cnn(CCN(C)C)c4)cc23)nc(N)n1`, the IC50 [1] is reported as 0.082 µM, the IC50 [2] is reported as 14 µM and the microsomal CLint [7] is reported as < 10 µL/min/mg. For the same compound, the microsomal CLint [8] was 39 µL/min/mg, the Papp A→B [9] was 7.3 ×10⁻⁶ cm/s and the Ratio [10] was 2.3. The IC50 [3] was 3.9 µM, the IC50 [4] was > 30 µM and the IC50 [5] was > 10 µM. The IC50 [6] was > 10 µM and the Ratio IC50 [11] was 48.
With `CCc1cc(-c2c[nH]c3nccc(Cl)c23)nc(N)n1` the IC50 [1] was > 10 µM.
For `CCCc1cc(-c2c[nH]c3ncccc23)nc(N)n1`, the IC50 [1] was 1.8 µM and the IC50 [2] was > 30 µM.
In the case of `Nc1nccc(-c2c[nH]c3cccc(O)c23)n1` [MERIDIANIN A], the IC50 [13] is reported as 5.4 µM.
With `CCc1cc(-c2c[nH]c3ncc(-c4ccco4)cc23)nc(N)n1` the IC50 [1] was 0.12 µM, the IC50 [2] was 28 µM and the IC50 [3] was > 10 µM. The IC50 [5] was > 10 µM and the IC50 [6] was > 10 µM.
Work on `Nc1nccc(-c2c[nH]c3ccc(Br)cc23)n1` [MERIDIANIN C] yielded an IC50 [1] of 12 µM.
In the case of `CCc1cc(-c2c[nH]c3ncc(-c4ccccc4)cc23)nc(N)n1`, the IC50 [1] is reported as 3.5 µM and the IC50 [2] is reported as > 30 µM.
In the case of `Nc1ncc(Br)c(-c2c[nH]c3ncccc23)n1`, the IC50 [1] is reported as > 10 µM.
For `CCc1cc(-c2c[nH]c3ncc(-c4ccn[nH]4)cc23)nc(N)n1`, the IC50 [1] was 0.26 µM, the IC50 [2] was 26 µM and the IC50 [3] was > 10 µM. For the same compound, the IC50 [4] was > 30 µM, the IC50 [5] was > 10 µM and the IC50 [6] was > 10 µM.
`Oc1ccc(-c2n[nH]c3cc(O)ccc23)cc1` showed an IC50 [1] of 6.7 µM.
For `COc1ccc2[nH]c(-c3cc[nH]n3)nc2c1`, the IC50 [1] was 93 µM.
In the case of `CCc1cc(-c2c[nH]c3ncccc23)nc(N)n1`, the IC50 [1] is reported as 1.2 µM and the IC50 [2] is reported as > 30 µM.
For `CCc1cc(-c2c[nH]c3ncc(-c4cnn(C)c4)cc23)nc(N)n1`, the IC50 [1] was 0.085 µM, the IC50 [2] was 11 µM and the microsomal CLint [7] was > 55 µL/min/mg. For the same compound, the microsomal CLint [8] was 71 µL/min/mg, the Papp A→B [9] was 5.4 ×10⁻⁶ cm/s and the Ratio [10] was 7.9. For the same compound, the IC50 [5] was > 10 µM, the IC50 [6] was > 10 µM and the inhibition [14] was 78%.
For `CCCCCc1cc(-c2c[nH]c3ncccc23)nc(N)n1`, the IC50 [1] was 2.2 µM and the IC50 [2] was > 30 µM.
With `CCc1cc(-c2c[nH]c3ncc(-c4ccnn4C)cc23)nc(N)n1` the IC50 [1] was 2.4 µM and the IC50 [2] was > 30 µM.
For `CCc1cc(-c2c[nH]c3ncc(Br)cc23)nc(N)n1`, the IC50 [1] was 0.48 µM and the IC50 [2] was > 30 µM.
With `CCc1cc(-c2c[nH]c3ncc(-c4ccncc4)cc23)nc(N)n1` the IC50 [1] was 0.45 µM and the IC50 [2] was > 30 µM.
Work on `CCc1cc(-c2c[nH]c3ncc(-c4cn[nH]c4)cc23)nc(N)n1` yielded an IC50 [1] of 0.013 µM, an IC50 [2] of 5.4 µM and a microsomal CLint [7] of 52 µL/min/mg. For the same compound, the microsomal CLint [8] was > 70 µL/min/mg, the Papp A→B [9] was 0.89 ×10⁻⁶ cm/s and the Ratio [10] was 54.8. For the same compound, the IC50 [3] was 6 µM, the IC50 [4] was > 30 µM and the IC50 [5] was 7 µM. For the same compound, the IC50 [6] was > 30 µM and the Ratio IC50 [11] was 460.
With `CCc1cc(-c2c[nH]c3ncccc23)ncn1` the IC50 [1] was > 10 µM and the IC50 [2] was > 30 µM.
